34 compounds from patent publication US8426447B2, “Spiro-tricyclic ring compounds as beta-secretase modulators and methods of use” (Amgen Inc., priority 2008, dated 2013) can be followed below.

The target of assay [1] is T1, BACE1 (Homo sapiens, UniProt P56817). As to the kind of experiment: In Vitro Enzymatic BACE FRET (Fluorescence Resonance Energy Transfer) Assay. The format is biochemical. The settings on record: read-out: BACE1 FRET assay. The gist of the method:
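Cleavage of a 50 nM internally quenched peptide substrate is followed by fluorescence after a one-hour reaction in acidic acetate buffer, pH 4.2, terminated by Tris.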

The target in assay [2] is T1, BACE1. As to the kind of experiment: In Vitro BACE Cell-based Assay (HEK cell assay): Aβ40 in conditioned medium of cells stably expressing Amyloid Precursor Protein, sandwich ELISA. The settings on record: read-out: HEK cell assay. How it is done:
In Vitro BACE Cell-based Assay
The cell-based assay measures inhibition or reduction of Aβ40 in conditioned medium of test compound treated cells expressing amyloid precursor protein.
Cells stably expressing Amyloid Precursor Protein (APP) were plated at a density of 40K cells/well in 96 well plates (Costar). The cells were cultivated for 24 hours at 37° C. and 5% CO2 in DMEM supplemented with 10% FBS. The test compounds were then added to cells in 10-point dose response concentrations with the starting concentration being either 100 μM or 10 μM. The compounds were diluted from stock solutions in DMSO and the final DMSO concentration of the test compounds on cells was 0.1%. After 24 h of incubation with the test compounds the supernatant conditioned media was collected and the Aβ 40 levels were determined using a sandwich ELISA. The IC50 of the compound was calculated from the percent of control or percent inhibition of Aβ 40 as a function of the concentration of the test compound.
The sandwich ELISA to detect Aβ 40 was performed in 96 well microtiter plates, which were pre-treated with goat anti-rabbit IgG (Pierce). The capture and detecting antibody pair that were used to detect Aβ 40 from cell supernatants were affinity purified pAb40 (Biosource) and biotinylated 6E10 (Signet Labs Inc.), respectively. The optimal concentration for the pAb40 antibody was 3 μg/ml in Superblock/TBS (Pierce) that was supplemented with 0.05% Tween 20 (Sigma).
Cellular supernatants were incubated with the capture antibody for 3 h at 4° C., followed by 3 wash steps in TBS-tween (0.05%). The detecting antibody incubation was for 2 h at 4° C., again followed by the wash steps as described previously. The final readout of the ELISA is Time-Resolved Fluorescence (counts per minute) using Delfia reagents Streptavidin-Europium and Enhancement solutions (Perkin Elmer) and the Victor 2 multilabel counter (Perkin Elmer).

The mark [3] stands for this setting: in vitro BACE FRET enzyme assay, IC50 class symbols.
Setting [4] is: HEK cell-based assay, Aβ40 in conditioned medium, IC50 class symbols.

T1 sequence (P56817 46-501, species assumed): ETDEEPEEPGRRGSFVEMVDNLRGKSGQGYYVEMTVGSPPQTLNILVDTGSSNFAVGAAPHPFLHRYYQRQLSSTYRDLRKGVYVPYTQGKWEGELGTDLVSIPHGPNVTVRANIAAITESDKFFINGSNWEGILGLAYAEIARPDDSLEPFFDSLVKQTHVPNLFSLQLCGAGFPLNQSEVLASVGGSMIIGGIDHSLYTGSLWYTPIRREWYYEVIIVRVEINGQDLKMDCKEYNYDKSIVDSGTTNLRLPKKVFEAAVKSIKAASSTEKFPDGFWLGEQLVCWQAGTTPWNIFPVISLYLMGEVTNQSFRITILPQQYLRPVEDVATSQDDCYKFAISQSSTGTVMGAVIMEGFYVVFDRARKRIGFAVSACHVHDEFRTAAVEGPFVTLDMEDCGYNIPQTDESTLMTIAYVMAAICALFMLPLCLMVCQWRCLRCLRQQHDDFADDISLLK

In the case of `NC1=N[C@]2(CO1)c1cc(Br)ccc1Oc1ccc(Oc3ccccn3)cc12` [compound 198, (4S)-2′-bromo-7′-(2-pyridinyloxy)spiro[1,3-oxazole-4,9′-xanthen]-2-amine], the IC50 on BACE1 [1] (Table III, IC50's in uM ranges) was in the range of 0.1 to 1 µM; at BACE1 [2] (Table III, IC50's in uM ranges), 1 to 5 µM.

For `NC1=N[C@]2(CO1)c1cc(OCC3CC3(F)F)ccc1Oc1ccc(-c3cncnc3)cc12` (stereo partly drawn) [Example 62, (4S)-2′-((2,2-difluorocyclopropyl)methoxy)-7′-(5-pyrimidinyl)spiro[1,3-oxazole-4,9′-xanthen]-2-amine], the IC50 was less than 0.1 µM on BACE1 [1] (Table II) and less than 0.1 µM at BACE1 [2] (Table II, Aβ40, 24 h incubation).

As for `CC(C)(C)COc1ccc2c(c1)[C@]1(COC(N)=N1)c1cc(C(C)(C)O)ccc1O2` [compound 827], the IC50 fell in the range of 0.1 to 1 µM at BACE1 [1] (Table IV, class symbols) and 1 to 5 µM at BACE1 [2] (Table IV, class symbols).

In the case of `CCOC(=O)/C=C/c1ccc2c(c1)[C@]1(COC(N)=N1)c1cc(-c3cncnc3)ccc1O2` [compound 825], the IC50 fell in the range of 0.1 to 1 µM on BACE1 [1] (Table IV, class symbols) and 0.1 to 1 µM at BACE1 [2] (Table IV, class symbols).

For `COC(=O)/C=C/c1ccc2c(c1)[C@@]1(COC(N)=N1)c1cc(-c3cncnc3)ccc1O2` [compound 946], the IC50 at BACE1 [1] and on BACE1 [2] was 0.1 to 1 µM throughout.

With `Cc1ccc2c(c1)Oc1ccc(-c3cccc(OC(F)(F)F)c3)cc1[C@]21COC(N)=N1` [Example 24, (4S)-6′-methyl-2′-(3-(trifluoromethoxy)phenyl)spiro[1,3-oxazole-4,9′-xanthen]-2-amine], the IC50 on BACE1 [1] (Table 1) is greater than 5 µM; at BACE1 [2] (Table 1, Aβ40, 24 h incubation), 1 to 5 µM.

With `NC1=N[C@@]2(CO1)c1cc(Br)ccc1Oc1ccc(Oc3ccccn3)cc12` [compound 206], the IC50 on BACE1 [1] (Table III, IC50's in uM ranges) was greater than 5 µM; at BACE1 [2] (Table III, IC50's in uM ranges) it was 0.1 to 1 µM.

For `CC(C)(C)CCc1ccc2c(c1)[C@]1(COC(N)=N1)c1cc(-c3ccc(F)nc3)ccc1O2` [153b], the IC50 on BACE1 [1] (Table III, IC50's in uM ranges) was less than 0.1 µM; on BACE1 [2] (Table III, IC50's in uM ranges) it was 0.1 to 1 µM.

Turning to `COc1ccc2c(c1)C1(COC(N)=N1)c1cc(-c3cccc(Cl)c3F)ccc1O2` (centres unmarked) [Example 18, 2′-(3-chloro-2-fluorophenyl)-7′-methoxyspiro[1,3-oxazole-4,9′-xanthen]-2-amine], the IC50 on BACE1 [1] (Table 1) was 1 to 5 µM; on BACE1 [2] (Table 1, Aβ40, 24 h incubation) it was greater than 5 µM.

`CC(C)(C)OC(=O)N1CC=C(c2ccc3c(c2)[C@]2(COC(N)=N2)c2cc(-c4cncnc4)ccc2O3)CC1` [compound 968]: the results for the IC50 on BACE1 [1] and at BACE1 [2] were less than 0.1 µM and 0.1 to 1 µM, respectively.

`Cc1ccc(-n2ccc3c(c2=O)[C@@]2(COC(N)=N2)c2cc(-c4cccnc4)ccc2O3)cc1` [compound 503]: the IC50 at BACE1 [1] was greater than 5 µM; at BACE1 [2] (HEK cells) it was 1 to 5 µM.

With `NC1=N[C@@]2(CO1)c1cc(-c3cc(Cl)ccc3F)ccc1Oc1ncc(N3CCOCC3)cc12` [compound 457], the IC50 on BACE1 [1] and on BACE1 [2] (HEK cells) was less than 0.1 µM throughout.

On to `COc1ncc(-c2ccc3c(c2)[C@]2(COC(N)=N2)c2cc(OCC(C)(C)C)ccc2O3)cn1` [compound 188], for which the IC50 at BACE1 [1] (Table III, IC50's in uM ranges) lay within 0.1 to 1 µM; on BACE1 [2] (Table III, IC50's in uM ranges), 1 to 5 µM.

In the case of `CC(C)(F)COc1cnc2c(c1)[C@]1(COC(N)=N1)c1cc(C#CC3CC3)ccc1O2` [compound 382], the IC50 on BACE1 [1] (setting [3]) and on BACE1 [2] (setting [4]) was less than 0.1 µM throughout.

In the case of `Cc1ccc2c(c1)Oc1ccc(Br)cc1C21COC(N)=N1` (centres unmarked) [Example 37, 2′-bromo-6′-methylspiro[1,3-oxazole-4,9′-xanthen]-2-amine], the IC50 at BACE1 [1] (Table 1) was greater than 5 µM; at BACE1 [2] (Table 1, Aβ40, 24 h incubation) it was greater than 5 µM.

As for `NC1=NC2(CO1)c1cnccc1Oc1ccc(-c3cccnc3)cc12` (centres unmarked) [compound 648], the IC50 on BACE1 [1] (Table IV, class symbols) lay within 1 to 5 µM; at BACE1 [2] (Table IV, class symbols), 1 to 5 µM.

For `Cc1ccc2c(c1)Oc1ccc(-c3ccccc3Cl)cc1C21COC(N)=N1` (centres unmarked) [Example 29, 2′-(2-chlorophenyl)-6′-methylspiro[1,3-oxazole-4,9′-xanthen]-2-amine], the IC50 on BACE1 [1] (Table 1) was greater than 5 µM; on BACE1 [2] (Table 1, Aβ40, 24 h incubation), greater than 5 µM.

As to `COC(C)(C)COc1cnc2c(c1)[C@]1(COC(N)=N1)c1cc(-c3ccccc3)ccc1O2` [compound 350], the IC50 on BACE1 [1] (setting [3]) and on BACE1 [2] (setting [4]) was less than 0.1 µM in each case.

For `CC(C)(C)C#Cc1ccc2c(c1)[C@]1(COC(N)=N1)c1cc(Oc3ccccn3)ccc1O2` [Example 112, (4R)-2′-(3,3-dimethyl-1-butyn-1-yl)-7′-(2-pyridinyloxy)spiro[1,3-oxazole-4,9′-xanthen]-2-amine], the IC50 on BACE1 [1] (Table III, IC50's in uM ranges) was less than 0.1 µM; on BACE1 [2] (Table III, IC50's in uM ranges) it was 0.1 to 1 µM.

With `COC(C)(C)C#Cc1cnc2c(c1)[C@@]1(COC(N)=N1)c1cc(-c3cccnc3)ccc1O2` [compound 719], the IC50 on BACE1 [1] and at BACE1 [2] was 0.1 to 1 µM in each case.

For `CC(C)(C)CCOc1nccc2c1C1(COC(N)=N1)c1cc(-c3cncnc3)ccc1O2` (centres unmarked) [Example 109, 1-(3,3-Dimethylbutoxy)-8-(pyrimidin-5-yl)-5′H-spiro[chromeno[3,2-c]pyridine-10,4′-oxazol]-2′-amine], the IC50 at BACE1 [1] (Table III, IC50's in uM ranges) is 0.1 to 1 µM; at BACE1 [2] (Table III, IC50's in uM ranges), 0.1 to 1 µM.

With `CC(=O)/C=C/c1ccc2c(c1)[C@]1(COC(N)=N1)c1cc(-c3cncnc3)ccc1O2` [compound 857], the IC50 at BACE1 [1] (Table IV, class symbols) was less than 0.1 µM; on BACE1 [2] (Table IV, class symbols), 0.1 to 1 µM.

On to `CN(C)C(=O)/C=C/c1ccc2c(c1)[C@]1(COC(N)=N1)c1cc(-c3cncnc3)ccc1O2` [compound 917], for which the IC50 on BACE1 [1] (Table IV, class symbols) was less than 0.1 µM; on BACE1 [2] (Table IV, class symbols), 0.1 to 1 µM.

On to `CC1(COc2ccc3c(c2)[C@@]2(COC(N)=N2)c2cc(-c4ccc(F)cc4)cnc2O3)COC1` [compound 775], for which the IC50 on BACE1 [1] and on BACE1 [2] was less than 0.1 µM in each case.

As for `CC(C)(C)COc1ccc2c(c1)[C@@]1(COC(N)=N1)c1cc(C#N)ccc1O2` [compound 990], the IC50 at BACE1 [1] is 0.1 to 1 µM; on BACE1 [2], 1 to 5 µM.

For `CC(C)(C)C#Cc1cnc2c(c1)[C@@]1(COC(N)=N1)c1cc(-c3cncnc3)cc(F)c1O2` [compound 538], the IC50 fell in the range of 0.1 to 1 µM on BACE1 [1] (Table IV, class symbols) and 0.1 to 1 µM at BACE1 [2] (Table IV, class symbols).

Consider `CC(C)(C)COc1ccc2c(c1)[C@]1(COC(N)=N1)c1cc(-c3cnccc3Cl)ccc1O2` [compound 883], for which the IC50 on BACE1 [1] (Table IV, class symbols) is less than 0.1 µM; on BACE1 [2] (Table IV, class symbols), 0.1 to 1 µM.

Regarding `NC1=N[C@@]2(CO1)c1cc(C(=O)NC3CC3)ccc1Oc1ccc(-c3ccccc3)cc12` [compound 518], the IC50 on BACE1 [1] and at BACE1 [2] (HEK cells) was less than 0.1 µM in each case.

On to `COc1ccc2c(c1)[C@]1(COC(N)=N1)c1cc(-c3ccnc4ccccc34)ccc1O2` [compound 589], for which the IC50 at BACE1 [1] (Table IV, class symbols) lay in the range of 1 to 5 µM; on BACE1 [2] (Table IV, class symbols), 1 to 5 µM.

For `COc1ccc2c(c1)C1(COC(N)=N1)c1cc(-c3cccc(C)c3)ccc1O2` (centres unmarked) [Example 20, 2′-methoxy-7′-(3-methylphenyl)spiro[1,3-oxazole-4,9′-xanthen]-2-amine], the IC50 was 1 to 5 µM on BACE1 [1] (Table 1) and greater than 5 µM on BACE1 [2] (Table 1, Aβ40, 24 h incubation).

For `CCOC(C)(C)COc1ccc2c(c1)[C@]1(COC(N)=N1)c1cc(-c3cccnc3)ccc1O2` [compound 172], the IC50 on BACE1 [1] (Table III, IC50's in uM ranges) was less than 0.1 µM; on BACE1 [2] (Table III, IC50's in uM ranges), less than 0.1 µM.

For `CC(C)(C)COc1ccc2c(c1)[C@@]1(COC(N)=N1)c1cc(-c3csc(C(F)F)c3)ccc1O2` [compound 783], the IC50 was less than 0.1 µM at BACE1 [1] and 1 to 5 µM at BACE1 [2].

Take `CC(C)(C)COc1ccc2c(c1)[C@]1(COC(N)=N1)c1cc(-c3ncc[nH]3)ccc1O2` [compound 979]: the IC50 on BACE1 [1] is 0.1 to 1 µM; on BACE1 [2], 1 to 5 µM.

As for `CC(C)(C)CCc1ccc2c(c1)[C@@]1(COC(N)=N1)c1cc(-c3cccnc3)cnc1O2` [compound 161], the IC50 on BACE1 [1] (Table III, IC50's in uM ranges) is less than 0.1 µM; on BACE1 [2] (Table III, IC50's in uM ranges), less than 0.1 µM.
